Measured values published in patent US20240246940A1, “HETEROARYL DERIVATIVE COMPOUND AND USE THEREOF” (VORONOI INC., priority 2021, published 2024).

Tests used:
[1] = test system: BT-474 cells (HER2 overexpressing cell line); assay: BT-474 cell proliferation inhibitory activity (CellTiter-Glo, 120 hours); format: cell-based; conditions: Homo sapiens
Procedure: To evaluate the cell proliferation inhibitory activity of the compound according to the present invention on HER2 and EGFR kinases, the following method was performed using HER2 overexpressing cell lines (SK-BR-3, BT-474, and N-87) and EGFR expressing cell line (HaCaT).
McCOY'S 5A supplemented with 10% FBS was used for SK-BR-3 cells, RPMI-1640 medium supplemented with 20% FBS was used for BT-474 cancer cells, and RPMI-1640 medium supplemented with 10% FBS was used for N-87 cancer cells. DMEM supplemented with 10% FBS was used for HaCaT cells.
For SK-BR-3 cells, 5000 cells were aliquoted into each well of a white clear bottom 96 well plate (Corning) 48 hours before treatment with the compounds of Examples. For BT-474 cells, 5000 cells were aliquoted into each well of a white clear bottom 96 well plate (Corning) 48 hours before treatment with the compounds of Examples. For N-87 cells, 5000 cells were aliquoted into each well of a white clear bottom 96 well plate (Corning) 24 hours before treatment with the compounds of Examples. For HaCaT cells, 3000 cells were aliquoted into each well of a white clear bottom 96 well plate (Corning) 24 hours before treatment with the compounds of Examples. For SK-BR-3 cells and BT-474 cells, the compounds of Examples were diluted in dimethyl sulfoxide (three-fold dilution, a total of 11 concentrations) and injected each in an amount of 1 μl to a final concentration of 0.2 nM to 10 μM. For N-87 cells, the compounds of Examples were diluted in dimethyl sulfoxide (five-fold dilution, a total of 11 concentrations) and injected each in an amount of 0.5 μl to a final concentration of […] to 5 μM. For HaCaT cells, the compounds of Examples were diluted in dimethyl sulfoxide (three-fold dilution, a total of 11 concentrations) and injected each in an amount of 0.5 μl to a final concentration of 0.8 nM to 45 μM. For the measurement of living cells, the cells were stored at room temperature for 10 minutes using CellTiter-Glo cell viability reagent (Promega) after a certain period of time (SK-BR-3: 120 hours, BT-474: 120 hours, N-87: 72 hours, and HaCaT: 72 hours) post treatment with the compounds of Examples, and the luminescence intensity thereof was measured using a reader (SynergyNeo, Biotek). Each test was repeated three times.
The result values were calculated as a cell growth rate (%) compared to those of the control group. A graph was created using the GraphPad Prism version 5.0 program, and GI50 values were calculated.

[2] = test system: HaCaT cells (EGFR expressing cell line); assay: HaCaT cell proliferation inhibitory activity (CellTiter-Glo, 72 hours); format: cell-based; conditions: Homo sapiens
In short: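 GI50 derived from % growth versus control from CellTiter-Glo luminescence, each test run three times. SK-BR-3 and BT-474 are seeded 48 h ahead at 5000/well and dosed at 0.2 nM–10 μM. N-87 (5000/well) gets […]–5 μM and HaCaT (3000/well) gets 0.8 nM–45 μM, both seeded 24 h ahead.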

SMILES	GI50 [1]	GI50 [2]
C=CC(=O)N1CCC(Oc2cc3c(Nc4cc(-c5ccc(F)c(C)c5F)ccc4OC)ncnc3cc2OC)CC1 [Example 207, 1-(4-((4-((2′,4′-difluoro-4-methoxy-3′-methyl-[1,1′-biphenyl]-3-yl)amino)-7-methoxy-quinazolin-6-yl)oxy)piperidin-1-yl)prop-2-en-1-one]	≤ 150 nM	150 to 1000 nM
C=CC(=O)Nc1cccc(-c2ccc(OC)c(Nc3ncnc4cc(OC)c(OC5CCN(C(=O)C=C)CC5)cc34)c2)c1 [Example 208, N-(3′-((6-((1-acryloyl-piperidin-4-yl)oxy)-7-methoxy-quinazolin-4-yl)amino)-4′-methoxy-[1,1′-biphenyl]-3-yl)acrylamide]	150 to 1000 nM	> 1000 nM
C=CC(=O)N1CCC(Nc2cc3c(Nc4cc(-c5cccc(C=O)c5)ccc4OC)ncnc3cc2OC)CC1 [Example 209, 3′-((6-((1-acryloyl-piperidin-4-yl)amino)-7-methoxy-quinazolin-4-yl)amino)-4′-methoxy-[1,1′-biphenyl]-3-carbaldehyde]	≤ 150 nM	150 to 1000 nM
C=CC(=O)N1CCC(Oc2cc3c(Nc4cc(-c5ccc(F)c(OC)c5F)ccc4OC)ncnc3cc2OC)CC1 [Example 210, 1-(4-((4-((2′,4′-difluoro-3′,4-dimethoxy-[1,1′-biphenyl]-3-yl)amino)-7-methoxy-quinazolin-6-yl)oxy)piperidin-1-yl)prop-2-en-1-one]	≤ 150 nM	150 to 1000 nM
C=CC(=O)N1CCC(Oc2cc3c(Nc4cc(-c5cccc(OC(F)(F)F)c5)ccc4OC)ncnc3cc2OC)CC1 [Example 211, 1-(4-((7-methoxy-4-((4-methoxy-3′-(trifluoro-methoxy)-[1,1′-biphenyl]-3-yl)amino)quinazolin-6-yl)oxy)piperidin-1-yl)prop-2-en-1-one]	≤ 150 nM	150 to 1000 nM
C=CC(=O)N1CCC(Oc2cc3c(Nc4cc(-c5cc(OC)c(F)cc5F)ccc4OC)ncnc3cc2OC)CC1 [Example 213, 1-(4-((4-((2′,4′-difluoro-4,5′-dimethoxy-[1,1′-biphenyl]-3-yl)amino)-7-methoxy-quinazolin-6-yl)oxy)piperidin-1-yl)prop-2-en-1-one]	≤ 150 nM	≤ 150 nM
C=CC(=O)N1CCC(Oc2cc3c(Nc4cc(-c5ccc(F)c(OCC(F)(F)F)c5)ccc4OC)ncnc3cc2OC)CC1 [Example 214, 1-(4-((4-((4′-fluoro-4-methoxy-3′-(2,2,2-trifluoroethoxy)-[1,1′-biphenyl]-3-yl)amino)-7-methoxy-quinazolin-6-yl)oxy)piperidin-1-yl)prop-2-en-1-one]	≤ 150 nM	> 1000 nM
C=CC(=O)N1CCC(Oc2cc3c(Nc4cc(C5=CCOCC5)ccc4OC)ncnc3cc2OC)CC1 [Example 216, 1-(4-((4-((5-(3,6-dihydro-2H-pyran-4-yl)-2-methoxyphenyl)amino)-7-methoxy-quinazolin-6-yl)oxy)piperidin-1-yl)prop-2-en-1-one]	150 to 1000 nM	150 to 1000 nM
C=CC(=O)N1CC2(CC(Oc3cc4c(Nc5cc(-c6ccco6)ccc5OC)ncnc4cc3OC)C2)C1 [Example 218, 1-(6-((4-((5-(furan-2-yl)-2-methoxyphenyl)amino)-7-methoxy-quinazolin-6-yl)oxy)-2-azaspiro[3.3]heptan-2-yl)prop-2-en-1-one]	> 1000 nM	150 to 1000 nM
C=CC(=O)N1CCC2(CC(Oc3cc4c(Nc5cc(-c6ccco6)ccc5OC)ncnc4cc3OC)C2)C1 (stereo not shown) [Example 220, 1-(2-((4-((5-(furan-2-yl)-2-methoxyphenyl)amino)-7-methoxy-quinazolin-6-yl)oxy)-6-azaspiro[3.4]octan-6-yl)prop-2-en-1-one]	150 to 1000 nM	150 to 1000 nM
C=CC(=O)N1CC2(CCC(Oc3cc4c(Nc5cc(-c6ccco6)ccc5OC)ncnc4cc3OC)C2)C1 (stereo not shown) [Example 221, 1-(6-((4-((5-(furan-2-yl)-2-methoxyphenyl)amino)-7-methoxy-quinazolin-6-yl)oxy)-2-azaspiro[3.4]octan-2-yl)prop-2-en-1-one]	> 1000 nM	150 to 1000 nM
C=CC(=O)N1CCC(Oc2cc3c(Nc4cc(-c5ccc(F)cc5F)ccc4OC)ncnc3cc2OCC)CC1 [Example 239, 1-(4-((4-((2′,4′-difluoro-4-methoxy-[1,1′-biphenyl]-3-yl)amino)-7-ethoxyquinazolin-6-yl)oxy)piperidin-1-yl)prop-2-en-1-one]	≤ 150 nM	≤ 150 nM
C=CC(=O)N1CCC(Nc2cc3c(Nc4cc(-c5ccc(F)cc5F)ccc4OC)ncnc3cc2OC(F)F)CC1 [Example 297, 1-(4-((4-((2′,4′-difluoro-4-methoxy-[1,1′-biphenyl]-3-yl)amino)-7-(difluoromethoxy)quinazolin-6-yl)amino)piperidin-1-yl)prop-2-en-1-one]	≤ 150 nM	≤ 150 nM
COc1cc2ncnc(Nc3cc(-c4ccc(F)cc4F)c(F)cc3OC)c2cc1NC(=O)/C=C/[C@H]1CCCN1C [Example 308, (R,E)-N-(7-methoxy-4-((2′,4′,6-trifluoro-4-methoxy-[1,1′-biphenyl]-3-yl)amino)quinazolin-6-yl)-3-(1-methylpyrrolidin-2-yl)acrylamide]	≤ 150 nM	≤ 150 nM
COc1cc2ncnc(Nc3cc(-c4ccco4)ccc3OC)c2cc1NC(=O)/C(F)=C\[C@@H]1CCCN1C [Example 309, (S,E)-2-fluoro-N-(4-((5-(furan-2-yl)-2-methoxyphenyl)amino)-7-methoxyquinazolin-6-yl)-3-(1-methylpyrrolidin-2-yl)acrylamide]	≤ 150 nM	≤ 150 nM
COc1cc2ncnc(Nc3cc(-c4ccco4)ccc3OC)c2cc1NC(=O)/C=C/CN1CCN(C)CC1 [Example 314, (E)-N-(4-((5-(furan-2-yl)-2-methoxyphenyl)amino)-7-methoxyquinazolin-6-yl)-4-(4-methylpiperazin-1-yl)but-2-enamide]	≤ 150 nM	≤ 150 nM
COc1cc2ncnc(Nc3cc(-c4ccco4)ccc3OC)c2cc1NC(=O)/C=C/CN1CCOCC1 [Example 315, (E)-N-(4-((5-(furan-2-yl)-2-methoxyphenyl)amino)-7-methoxyquinazolin-6-yl)-4-morpholinobut-2-enamide]	≤ 150 nM	≤ 150 nM
COc1cc2ncnc(Nc3cc(-c4ccc(F)cc4F)ccc3OC)c2cc1NC(=O)/C=C/CN1CCOCC1 [Example 316, (E)-N-(4-((2′,4′-difluoro-4-methoxy-[1,1′-biphenyl]-3-yl)amino)-7-methoxyquinazolin-6-yl)-4-morpholinobut-2-enamide]	≤ 150 nM	≤ 150 nM
COc1cc2ncnc(Nc3cc(-c4ccc(F)cc4F)ccc3OC)c2cc1NC(=O)/C=C/CN1CCN(C)CC1 [Example 317, (E)-N-(4-((2′,4′-difluoro-4-methoxy-[1,1′-biphenyl]-3-yl)amino)-7-methoxyquinazolin-6-yl)-4-(4-methylpiperazin-1-yl)but-2-enamide]	≤ 150 nM	≤ 150 nM
COc1cc2ncnc(Nc3cc(-c4ccco4)ccc3OC)c2cc1NC(=O)/C=C/CN1C2COCC1C2 [Example 318, (E)-4-(3-oxa-6-azabicyclo[3.1.1]heptan-6-yl)-N-(4-((5-(furan-2-yl)-2-methoxyphenyl)amino)-7-methoxyquinazolin-6-yl)but-2-enamide]	≤ 150 nM	≤ 150 nM
COc1cc2ncnc(Nc3cc(-c4ccc(F)cc4F)ccc3OC)c2cc1NC(=O)/C=C/CN1C2COCC1C2 [Example 319]	≤ 150 nM	≤ 150 nM
COc1ccc(-c2ccc(F)cc2F)cc1Nc1ncnc2ccc(NC(=O)/C=C/CN(C)C)c(Cl)c12 [Example 320, (E)-N-(5-chloro-4-((2′,4′-difluoro-4-methoxy-[1,1′-biphenyl]-3-yl)amino)quinazolin-6-yl)-4-(dimethylamino)but-2-enamide]	150 to 1000 nM	150 to 1000 nM
COc1ccc(-c2ccco2)cc1Nc1ncnc2ccc(NC(=O)/C=C/CN(C)C)c(Cl)c12 [Example 321, (E)-N-(5-chloro-4-((5-(furan-2-yl)-2-methoxyphenyl)amino)quinazolin-6-yl)-4-(dimethylamino)but-2-enamide]	> 1000 nM	150 to 1000 nM
